Measured values: publication PMC3779320, “Bub3 reads phosphorylated MELT repeats to promote spindle assembly checkpoint signaling” (eLife, 2013)
Square brackets hold non-standard residues; d marks the D form. Peptide text beside a SMILES is read from it. pT = C[C@@H](OP(=O)(O)O)[C@H](N)C(=O)O

What was measured:
[1] = target: T1, Bub1^289–359–Bub3 (Saccharomyces cerevisiae, UniProt P26449+P41695); experiment: ITC binding of MELT peptides to Bub1^289–359–Bub3 (wild type); details: 25°C, 20 mM Tris pH7.5, 150 mM NaCl, 1 mM DTE, complex 30 µM in cell, peptide 400 µM
T1 construct: S. cerevisiae Bub1^289–359 and for full length Bub3; GST (N, cleaved yes); made in house; host or cells: E. coli BL21 DE3 plysS
T1 sequence (P26449 1-341): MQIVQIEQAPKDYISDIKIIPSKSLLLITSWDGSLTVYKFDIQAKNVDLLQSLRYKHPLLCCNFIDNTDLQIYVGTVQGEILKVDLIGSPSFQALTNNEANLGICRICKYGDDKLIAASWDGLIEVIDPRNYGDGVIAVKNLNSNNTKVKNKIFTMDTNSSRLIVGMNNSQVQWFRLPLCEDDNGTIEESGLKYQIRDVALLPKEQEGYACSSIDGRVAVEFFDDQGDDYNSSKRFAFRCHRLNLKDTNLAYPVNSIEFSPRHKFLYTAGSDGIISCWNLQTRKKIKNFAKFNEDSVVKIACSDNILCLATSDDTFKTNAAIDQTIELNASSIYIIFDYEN
T1 sequence (P41695 289-359): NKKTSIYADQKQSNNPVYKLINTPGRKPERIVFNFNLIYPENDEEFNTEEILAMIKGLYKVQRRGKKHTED
Text: We generated recombinant ScBub1^289–359–Bub3 (where the Bub1 segment is equivalent to the minimal kinetochore targeting region of human Bub1 [[Krenn et al., 2012]]) by bacterial co-expression and purified it to homogeneity (Figure 1D). To assess whether Bub1–Bub3 binds directly to MELT^P sequences, we tested its ability to bind MELT sequences in quantitative isothermal titration calorimetry (ITC) binding experiments. 19-residue synthetic peptides encompassing the sequences of the second and fourth MELT^P motifs of Spc105/Knl1 (indicated as MELT2 and MELT4, respectively), each flanked by four and eleven residues on the N- and C-terminal ends, respectively, were tested (Figure 1C). […] Thus, ScBub1^289–359–Bub3 is sufficient for the reconstitution of tight interactions with two MELT^P peptides in vitro that recapitulate a salient feature of this interaction, its dependency on phosphorylation.
cDNA sequences coding for S. cerevisiae Bub1^289–359 and for full length Bub3 were subcloned in the first and second cassettes of pGEX-6P-2rbs vector ([Ciferri et al., 2005]). In this construct, the cDNA encoding Bub1^289–359 was sub-cloned in frame with the gene encoding GST and a cleavage site for PreScission protease, and was translated from the first ribosome-binding site (rbs). Untagged Bub3 was subcloned downstream of the second rbs in the same vector. Expression was carried out in BL21 DE3 plysS cells in LB medium by auto-induction with 0.3% lactose at 18°C for approximately 16 hr. Cells were harvested by centrifugation and resuspended in Buffer A (20 mM Tris pH 7.5, 300 mM NaCl, 10% Glycerol, 1 mM DTE, 1 mM EDTA pH 8.0, 1 mM PMSF) typically at a dilution of 3 ml lysis buffer per ml of bacterial pellet. Cells were lysed by sonication, and the lysates were cleared by centrifugation at 75000 × g for 45 min. The resulting clear supernatant was incubated with gentle rotation with 1/50 (vol/vol) of GSH-sepharose slurry (GE Healthcare) for 1–2 hr at 4°C. Beads were washed with 150 vol of Buffer A. To elute the Bub1–Bub3 complex from beads, GST-PreScission protease (0.02 mg/mg of protein target) was added for 16 hr at 4°C. The eluate was concentrated on Amicon Ultra Centrifugal Filters MwCO 3000 (Merck Millipore, Billerica, MA) and further purified by size exclusion chromatography (SEC) on a Superdex 75 16/60 column using GF buffer (20 mM Tris pH 7.5, 150 mM NaCl, 1 mM DTE). The complex eluted in a single peak with apparently stoichiometric amounts of Bub1^289–359 and Bub3 and was subsequently concentrated to ∼10 mg/ml for crystallization or to 2–4 mg/ml for ITC experiments. […]
(§1) Binding isotherm was measured at 25°C by isothermal titration calorimetry on a MicroCal ITC200 device (GE Healthcare, Piscataway, NJ). […]

[2] = test system: Bub1^289–359–Bub3^R217A–R239A; experiment: ITC binding to Bub1^289–359–Bub3^R217A–R239A double mutant; parameters: species or system Saccharomyces cerevisiae; details: 25°C, 20 mM Tris pH7.5, 150 mM NaCl, 1 mM DTE, complex 30 µM in cell, peptide 400 µM
Text: Because the presence of a phosphate on Thr172^Spc105/Knl1 is essential for high-affinity binding of ScBub1^289–359–Bub3 to MELT^P peptides (Figure 1), we concentrated our mutational analysis on two residues that are directly implicated in the recognition of the peptide’s phospho-threonine, Arg217^Bub3 and Arg239^Bub3. Positively charged residues are invariant at these positions of the Bub3 alignment (Figure 2C). We generated single or double alanine mutants of Arg217^Bub3 and Arg239^Bub3 in the context of ScBub1^289–359–Bub3 and tested their binding affinity for the MELT2^P peptide by ITC.
cDNA sequences coding for S. cerevisiae Bub1^289–359 and for full length Bub3 were subcloned in the first and second cassettes of pGEX-6P-2rbs vector ([Ciferri et al., 2005]). In this construct, the cDNA encoding Bub1^289–359 was sub-cloned in frame with the gene encoding GST and a cleavage site for PreScission protease, and was translated from the first ribosome-binding site (rbs). Untagged Bub3 was subcloned downstream of the second rbs in the same vector. Expression was carried out in BL21 DE3 plysS cells in LB medium by auto-induction with 0.3% lactose at 18°C for approximately 16 hr. […]
as §1

CC[C@H](C)[C@H](NC(=O)[C@H](CO)NC(=O)[C@H](CCCNC(=N)N)NC(=O)[C@@H]1CCCN1C(=O)[C@H](Cc1ccccc1)NC(=O)[C@@H](NC(=O)[C@H](CCC(=O)O)NC(=O)[C@@H](NC(=O)[C@H](CCSC)NC(=O)[C@H](CCC(=O)O)NC(=O)[C@H](CCSC)NC(=O)[C@H](CO)NC(=O)[C@@H](NC(=O)[C@@H]1CCCN1C(=O)[C@H](CC(=O)O)NC(C)=O)[C@@H](C)O)[C@@H](C)OP(=O)(O)O)C(C)C)C(=O)N[C@@H](CCCNC(=N)N)C(=O)N[C@@H](CCC(N)=O)C(=O)N[C@@H](CCCCN)C(=O)N[C@@H](CC(N)=O)C(N)=O [MELT2^P] (Ac-DPTSMEM[pT]EVFPRSIRQKN-NH2; N-terminus and C-terminus assumed)
binding (in words) [1]: no binding | binding (in words) [2]: no significant residual binding
